Results from PubChem BioAssay (NCI).
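Cells were grown in 96-well plates and exposed to each compound for 48 hours at five concentrations; endpoints were interpolated linearly between bracketing concentrations, or set to the highest concentration if not reached. At the GI50, growth is halved. The concentration for full growth arrest is given as TGI.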

How the values were obtained:
Experiment in all cases: growth of human tumour cells (NCI), 48 h
MCF7 breast = tested on: MCF7 breast
RXF 393 renal = tested on: RXF 393 renal
BT-549 breast = tested on: BT-549 breast
NCI-H460 lung = tested on: NCI-H460 lung
HCT-15 colon = tested on: HCT-15 colon
SK-MEL-5 melanoma = tested on: SK-MEL-5 melanoma
MDA-N = tested on: MDA-N
SNB-75 CNS = tested on: SNB-75 CNS
RPMI-8226 leukemia = tested on: RPMI-8226 leukemia
LOX IMVI melanoma = tested on: LOX IMVI melanoma
CAKI-1 renal = tested on: CAKI-1 renal

| Structure (SMILES) | TGI (MCF7 breast) [µM] | TGI (RXF 393 renal) [µM] | TGI (BT-549 breast) [µM] | TGI (NCI-H460 lung) [µM] | TGI (HCT-15 colon) [µM] | TGI (SK-MEL-5 melanoma) [µM] | TGI (MDA-N) [µM] | TGI (SNB-75 CNS) [µM] | TGI (RPMI-8226 leukemia) [µM] | TGI (LOX IMVI melanoma) [µM] | TGI (CAKI-1 renal) [µM] | GI50 (BT-549 breast) [µM] | GI50 (LOX IMVI melanoma) [µM] |
| --- | --- | --- | --- | --- | --- | --- | --- | --- | --- | --- | --- | --- | --- |
| O=C1NC(=O)/C(=C/c2ccc(S(=O)(=O)N/N=C/c3ccc(Cl)cc3)cc2)N1 | > 100 | > 100 | > 100 | > 100 | > 100 | > 100 | > 100 | > 100 | > 100 | > 100 | > 100 | – | – |
| CC[N+]1(C)CCC(O)(/C=C/c2ccc(OC)cc2)C(C(=O)/C=C/c2ccc(OC)cc2)C1 (stereo not given) | > 42.6 | 28.4 | 49.7 | > 35.6 | > 55.4 | 31.9 | > 50.1 | 40.6 | 1.04 | > 22.5 | 3.93 | – | – |
| Cc1ccncc1.F[B-](F)(F)F.[Pt+2].c1ccc(-c2cccc(-c3ccccn3)n2)nc1 | 25.7 | 38.4 | > 78.6 | 23.3 | 38.1 | 21.7 | > 100 | > 89.7 | 32.9 | > 88.4 | > 62.1 | 13.7 | 1.28 |
| COc1nc2c(c(=O)n1C)N[C@H]1[C@H](OC(C)=O)[C@@H](OC(C)=O)CO[C@H]1N2 | > 100 | > 100 | > 100 | > 100 | > 100 | > 100 | > 100 | > 100 | > 100 | > 100 | > 100 | – | – |
| CCOP(=O)(OCC)C(Nc1cccc(F)c1)c1ccccc1 (stereo not given) | > 100 | > 100 | > 100 | > 100 | > 100 | > 100 | > 100 | > 100 | > 100 | > 100 | > 100 | – | – |
| COC(=O)[C@H]1[C@@H](C(C)C)O[C@@H](C(C)C)O[C@H]1C(F)(F)F | > 100 | > 100 | > 100 | > 100 | > 100 | > 100 | > 100 | > 100 | > 100 | > 100 | > 100 | – | – |
| Cc1cccc2c1[nH]c1[nH]c(=O)[nH]c(=O)c12 | > 100 | > 100 | > 100 | – | > 100 | > 100 | > 100 | 85.5 | > 100 | > 100 | > 100 | – | – |
| CCOC(=O)C1(C(=O)OCC)[C@H](c2ccccc2)C2=NO[C@@H]3CCC[C@H]1[C@H]23 | > 100 | > 100 | > 100 | > 100 | > 100 | > 100 | > 100 | > 100 | > 100 | > 100 | > 100 | – | – |
| N/N=C1/C2CN3CCN(C2)CC1(c1ccc([N+](=O)[O-])cc1)C3 | > 100 | > 100 | > 100 | – | – | > 100 | > 100 | > 100 | > 100 | > 100 | > 100 | – | – |
| C(=C\c1cccc(/C=C/c2ccccn2)n1)/c1ccccn1 | > 100 | > 100 | 40.9 | > 100 | > 100 | > 100 | > 100 | > 100 | > 100 | > 100 | > 100 | – | – |
| CCOC(=O)C(=[N+]=[N-])C(=O)Nc1nn2nnnc2c2ccccc12 | > 100 | > 100 | > 100 | > 100 | – | > 100 | > 100 | > 100 | > 100 | > 100 | > 100 | – | – |
| COc1ccc(N(C)C(=O)N(C)c2ccc([N+](=O)[O-])cc2)cc1 | > 100 | 76.2 | > 100 | > 100 | > 100 | > 100 | 24.2 | > 100 | > 100 | > 100 | > 100 | – | – |
